In doi:10.1101/2025.11.12.687946v2 (biorxiv, 2025):

Legend:
PaSuhB [1] = molecular target: T1, PaSuhB (Pseudomonas aeruginosa, UniProt Q9HXI4); assay: biochemical
T1 sequence (Q9HXI4 1-271): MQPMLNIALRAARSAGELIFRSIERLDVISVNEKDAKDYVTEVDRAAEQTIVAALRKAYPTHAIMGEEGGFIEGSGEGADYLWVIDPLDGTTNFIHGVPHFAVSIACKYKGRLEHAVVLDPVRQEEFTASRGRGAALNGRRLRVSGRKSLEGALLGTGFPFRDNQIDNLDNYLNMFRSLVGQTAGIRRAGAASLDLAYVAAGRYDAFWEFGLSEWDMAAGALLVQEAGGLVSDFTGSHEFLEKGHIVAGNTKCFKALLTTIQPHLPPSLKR

PaSuhB [2] = molecular target: T1, PaSuhB; assay: biochemical; remark: listed apart in the source
purified protein = substrate: O=P(O)(O)O[C@@H]1[C@H](O)[C@H](O)[C@@H](O)[C@H](O)[C@H]1O; assay: purified protein; conditions: Mg2+, pH 8.0, 37 °C, no inhibitor

For `O=C(O)c1cc(O)c(O)c(O)c1` [GDE, 3,4,5-trihydroxybenzoic acid], the IC50 (PaSuhB [1]) was roughly 1340 µM and the Kd (PaSuhB [2]) was 8.71 µM.

B1: PaSuhB (Pseudomonas aeruginosa PAO1) (protein)
chain: MQPMLNIALRAARSAGELIFRSIERLDVISVNEKDAKDYVTEVDRAAEQTIVAALRKAYPTHAIMGEEGGFIEGSGEGADYLWVIDPLDGTTNFIHGVPHFAVSIACKYKGRLEHAVVLDPVRQEEFTASRGRGAALNGRRLRVSGRKSLEGALLGTGFPFRDNQIDNLDNYLNMFRSLVGQTAGIRRAGAASLDLAYVAAGRYDAFWEFGLSEWDMAAGALLVQEAGGLVSDFTGSHEFLEKGHIVAGNTKCFKALLTTIQPHLPPSLKR
B1 gave a Km (purified protein) of 43.82 µM.
